US20160362693A1, “Reagents and Methods for Treating Cancer” (PeptiMed, Inc., priority 2010, published 2016)

Legend:
Format in all cases: cell-based, human
[1] = tested on: Caov-3 ovarian tumor cells; test: Viability of ovarian tumor cells after siRNA transfection (trypan blue count); details: 50 nM siRNA, DharmaFECT, 96 hours, vs control siRNA
Procedure: (§1) Each of the five siRNA duplexes presented in Table 2 were introduced into cultures of ovarian tumor cells at a concentration of 50 nM. Briefly, fifty to one hundred thousand tumor cells were added to each well of a 6 well plate and allowed to attach to the surface and grow for 18 hours in DMEM medium containing 10% fetal bovine serum. A total of 100 pmol of each siRNA was introduced into cells using 1 microliter DharmaFECT (Thermo Scientific) reagent in 2 ml total volume of media. Cells were incubated with the siRNA for 96 hours. The viability of the ovarian tumor cells was assessed by counting cells with a hemocytometer following trypan blue exclusion staining. Each of the five sequences reduced the number of viable cells at least 40% (compared to control siRNA-treated cells) in at least one ovarian tumor cell line.

[2] = tested on: ES-2 ovarian tumor cells; test: as above; details: 50 nM siRNA, DharmaFECT, 96 hours, vs control siRNA
Procedure: as §1

[3] = tested on: OV-90 ovarian tumor cells; test: as above; details: 50 nM siRNA, DharmaFECT, 96 hours, vs control siRNA
Procedure: as §1

[4] = tested on: OVCAR3 ovarian tumor cells; test: as above; details: 50 nM siRNA, DharmaFECT, 96 hours, vs control siRNA
Procedure: as §1

[5] = tested on: PA-1 ovarian tumor cells; test: as above; details: 50 nM siRNA, DharmaFECT, 96 hours, vs control siRNA
Procedure: as §1

[6] = tested on: SK-OV-3 ovarian tumor cells; test: as above; details: 50 nM siRNA, DharmaFECT, 96 hours, vs control siRNA
Procedure: as §1

[7] = tested on: TOV-112D ovarian tumor cells; test: as above; details: 50 nM siRNA, DharmaFECT, 96 hours, vs control siRNA
Procedure: as §1

[8] = tested on: UWB1.289 ovarian tumor cells; test: as above; details: 50 nM siRNA, DharmaFECT, 96 hours, vs control siRNA
Procedure: as §1

[9] = tested on: Hs832.Tc cells; test: Viability of ovarian cells after siRNA transfection (trypan blue count); details: 50 nM siRNA, DharmaFECT, 96 hours, vs control siRNA
Procedure: as §1

[10] = tested on: LNCaP prostate tumor cells; test: Viability of prostate tumor cells after siRNA transfection (trypan blue count); details: 50 nM siRNA, DharmaFECT, 96 hours, vs control siRNA
Procedure: as §1, with “prostate” for “ovarian”, “[…]” for “100 pmol”, “DharmaFECT” for “DharmaFECT (Thermo Scientific)”

[11] = tested on: PC3 prostate tumor cells; test: as above; details: 50 nM siRNA, DharmaFECT, 96 hours, vs control siRNA
Procedure: as §1, with “prostate” for “ovarian”, “[…]” for “100 pmol”, “DharmaFECT” for “DharmaFECT (Thermo Scientific)”

[12] = tested on: MCF-7 breast tumor cells; test: Viability of breast tumor cells after siRNA transfection (trypan blue count); set-up: dose or concentration left out as unconfirmed; details: DharmaFECT, 96 hours, vs control siRNA
Procedure: as §1, with “of breast” for “of ovarian”, “serum. […]” for “serum. A total of 100 pmol of each siRNA was introduced into cells using 1 microliter DharmaFECT (Thermo Scientific) reagent in 2 ml total volume of media.”, “the breast” for “the ovarian”, “blue exclusion.” for “blue exclusion staining.”

[13] = tested on: MDA-MB-231 breast tumor cells; test: as above; set-up: dose or concentration left out as unconfirmed; details: DharmaFECT, 96 hours, vs control siRNA
[14] = tested on: ES-2 cells; test: Concentration-dependent effect of siRNA on cell survival (IC50); details: cell viability 96 hours after adding siRNA, FIG. 6A, read-out: IC50 (concentration of siRNA that inhibited growth by 50%)
Procedure: (§2) FIG. 6A and FIG. 6B show concentration-dependent effects of siRNA against the EVI1 gene on cell survival. Ovarian tumor cells ES-2 and TOV-112D were seeded into each well of a 12 well plate. Increasing concentrations of siRNA were introduced into the cells using 1 microliter of Dharmafect reagent in 2 ml of medium. The number of viable cells was determined using trypan blue staining and counting in a hemacytometer.
(§3) For a substance to be an effective cancer therapeutic agent, it needs a robust cancer killing effect at very low concentrations, which for siRNA will be understood to be at subnanomolar concentrations in cell culture. The concentration of siRNA that inhibited growth of ovarian tumor cells by 50% (IC50) was determined by measuring cell viability 96 hours after adding one of various dose levels of siRNA to identical numbers of tumor cells in culture. […] For TOV-112D cells, the IC50 of siEVI1-979 (SEQ ID NOs 9-10) is ˜4 nM, and the IC50 of siEVI1-2910 (SEQ ID NOs 13-14) is ˜0.8 nM. To further identify potent sequences that inhibit the growth of ovarian tumor cells, sequences of up to 10 bp upstream and 10 bp downstream of siEVI1-2910 (SEQ ID NOs: 121-160) were prepared and administered to ES-2 and TOV-112D ovarian tumor cells at a concentration of 2.5 nM using DharmaFECT transfection reagent. FIG. 7A depicts the results of percent growth inhibition of TOV-112D ovarian tumor cells relative to a transfection control. […] FIG. 7B depicts the results of percent growth inhibition of ES-2 ovarian tumor cells relative to a transfection control.

[15] = tested on: TOV-112D cells; test: as above; details: cell viability 96 hours after adding siRNA, FIG. 6B, read-out: IC50 (concentration of siRNA that inhibited growth by 50%)
Procedure: as §2, §3

Substance	Response to siRNA (% growth inhibition) [1]	Response to siRNA (% growth inhibition) [2]	Response to siRNA (% growth inhibition) [3]	Response to siRNA (% growth inhibition) [4]	Response to siRNA (% growth inhibition) [5]	Response to siRNA (% growth inhibition) [6]	Response to siRNA (% growth inhibition) [7]	Response to siRNA (% growth inhibition) [8]	Response to siRNA (% growth inhibition) [9]	Response to siRNA (% growth inhibition) [10]	Response to siRNA (% growth inhibition) [11]	Response to siRNA (% growth inhibition) [12]	Response to siRNA (% growth inhibition) [13]	IC50 [14]	IC50 [15]
siEVI1-992: siRNA duplex; sense 5′-ggacaaauguucagcacuauu-3′ SEQ ID NO: 11, antisense SEQ ID NO: 12 (sense GGACAAAUGUUCAGCACUAUU; antisense UAGUGCUGAACAUUUGUCCUU; listed as RNA, chemistry not given here)	46%	54%	25%	0%	0%	31%	70%	73%	10%	12%	35%	0%	23%	–	–
siEVI1-979: siRNA duplex; sense 5′-gugcaaagacuguggacaauu-3′ SEQ ID NO: 9, antisense SEQ ID NO: 10 (sense GUGCAAAGACUGUGGACAAUU; antisense UUGUCCACAGUCUUUGCACUU; listed as RNA, chemistry not given here)	34%	63%	16%	60%	0%	42%	79%	14%	0%	12%	8%	0%	14%	~2.5 nM	~4 nM
siEVI1-2910: siRNA duplex; sense 5′-ggaauguggaggagagaauuu-3′ SEQ ID NO: 13, antisense SEQ ID NO: 14 (sense GGAAUGUGGAGGAGAGAAUUU; antisense AUUCUCUCCUCCACAUUCCUU; listed as RNA, chemistry not given here)	47%	92%	23%	73%	0%	12%	85%	67%	0%	46%	53%	67%	21%	~0.5 nM	~0.8 nM
siEVI1-256: siRNA duplex; sense 5′-ccagauaaaugaucagauauu-3′ SEQ ID NO: 7, antisense SEQ ID NO: 8 (sense CCAGAUAAAUGAUCAGAUAUU; antisense UAUCUGAUCAUUUAUCUGGUU; listed as RNA, chemistry not given here)	13%	0%	26%	0%	0%	12%	36%	43%	0%	4%	23%	32%	31%	–	–
siEVI1-2994: siRNA duplex; sense 5′-augaagaaguugaagaugauu-3′ SEQ ID NO: 15, antisense SEQ ID NO: 16 (sense AUGAAGAAGUUGAAGAUGAUU; antisense UCAUCUUCAACUUCUUCAUUU; listed as RNA, chemistry not given here)	28%	54%	33%	0%	18%	0%	70%	0%	0%	12%	25%	57%	21%	–	–
